# Reference: patent publication US20210137958A1, “PHARMACEUTICAL COMPOSITIONS OF DECITABINE” (SHILPA MEDICARE LIMITED, priority 2018, published 2021)
# Key:
# [1] = reconstituted and diluted Dacogen solution; cited from earlier work
# [2] = format: physicochemical
# Source text: a) Impurity 1 is formed in acidic and basic conditions. Impurity 1 is chemically 5-Azacytosine or 4-amino-1, 3, 5-triazin-2(1H)-one and represented by following structure.
# b) Impurity 2 is an oxidation impurity formed by peroxide stress and is chemically (4-amino-1-(tetrahydro-4-hydroxy-5-(Hydroxymethyl)furan-2-yl)-1,3,5-triazin-2(1H)-one or alpha isomer and represented by following structure
# c) Impurity 3 is an oxidation impurity formed by peroxide stress. Impurity 3 is chemically represented as (2-Deoxy-ribufuranosyl-3-guanylurea) or deformyl impurity and represented by following structure
# d) NFDU impurity is a transition impurity and increases on oxidation by peroxide stress chemically represented as N-(formylamidino) N′-β-D-2′-deoxyribofuranosylurea and structurally represented as […]
smiles,measurement,setting,value
"Nc1ncn([C@H]2C[C@H](O)[C@@H](CO)O2)c(=O)n1 [decitabine, 4-amino-1-(2-deoxy-β-D-erythro-pentofuranosyl)-1,3,5-triazin-2(1H)-one]",Stability in aqueous media,[1],highly unstable
same,Impurities obtained on forced degradation,[2],"four known impurities namely Impurity-1, Impurity-2, Impurity-3 and NFDU are obtained"
